For one experiment, the system named is M-NFS-60 cells. The experiment can be described thus: M-NFS-60 cell proliferation assay (Alamar Blue). As to conditions: Mus musculus; 72 hours incubation, M-CSF 20 ng/mL; read-out: CSF1R M-NFS-60 CTB:IC50. The experiment is classed as cell-based, mouse. The procedure, abridged: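 Mouse M-NFS-60 cells growing on 20 ng/mL M-CSF in RPMI/10% FBS were exposed to compounds (9 half-log concentrations, 0.5% DMSO) for 72 h at 37 °C. Viability read by Alamar Blue fluorescence (ex 560/em 590 nm, 3 h). IC50 = 50% proliferation inhibition versus control, mean of duplicates.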

The target of another experiment is CSF1R (Homo sapiens, UniProt P07333). The experiment can be described thus: Competition binding assay, CSF1R Kd. Details: made in house. The procedure, abridged:
(§1)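 Kinases, either T7 phage fusions or HEK-293-expressed and DNA-tagged, competed with test compounds for immobilized biotinylated affinity ligand on streptavidin beads in binding buffer (20% SeaBlock, 0.17×PBS, 0.05% Tween 20, 6 mM DTT). After 1 hour at room temperature, bead-bound kinase was eluted and quantified by qPCR; Kd from eleven-point threefold dilutions.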

For a further experiment, the target named is T1, PDGFRβ (Homo sapiens, UniProt P09619).
T1 construct: made in house
The experiment can be described thus: Competition binding assay, PDGFRβ Kd. An outline of the steps:
as §1

Another experiment concerns the target T2, KIT (Homo sapiens, UniProt P10721).
T2 construct: made in house
The experiment is described as follows: Competition binding assay, KIT Kd. The procedure, abridged:
as §1

In experiment [1] the target is kinase panel containing either 386 or 392 distinct kinases. The experiment is described as follows: Kinase selectivity score S10 from competition binding panel. As to conditions: compounds at 10 μM; 386 or 392 distinct kinases. On the procedure:
Competition binding assays used herein were developed, validated and performed as described in Fabian et al., Nature Biotechnology 2005, 23, 329-336. Kinases were produced as fusions to T7 phage (See, Fabian et al. or WO04/015142) or alternatively, the kinases were expressed in HEK-293 cells and subsequently tagged with DNA for PCR detection (See, WO08/005310). For the binding assays, streptavidin-coated magnetic beads were treated with biotinylated affinity ligands for 30 min at room temperature to generate affinity resins. The liganded beads were blocked with excess biotin and washed with blocking buffer (SeaBlock (Pierce), 1% BSA, 0.05% Tween 20, 1 mM DTT) to remove unbound ligand and to reduce non-specific binding. Binding reactions were assembled by combining kinase, liganded affinity beads, and test compounds in 1× binding buffer (20% SeaBlock, 0.17×PBS, 0.05% Tween 20, 6 mM DTT). Test compounds were prepared as 100× stocks in DMSO and diluted into the aqueous environment. Kds were determined using an eleven point threefold serial dilutions. DMSO or control compounds were was added to control assays lacking a test compound. Primary screen assays were performed in polypropylene 384-well plates in a final volume of 20-40 μL, while Kd determinations were performed in polystyrene 96-well plates in a final volume of 135 μL. The assay plates were incubated at room temperature with shaking for 1 hour to allow the binding reactions to reach equilibrium, and the affinity beads were washed extensively with wash buffer (1×PBS, 0.05% Tween 20) to remove unbound protein. The beads were then resuspended in elution buffer (1×PBS, 0.05% Tween […] non-biotinylated affinity ligand) and incubated at room temperature with shaking for 30 min. The kinase concentration in the eluates was measured by quantitative PCR.
A selectivity score (S10) is a quantitative measure of selectivity of a compound against a panel of kinases. An S10 was calculated for a compound by dividing the number of kinases found to have a percent of control (DMSO) less than 10 by the total number of distinct kinases tested (excluding mutant variants). Percent of control (POC) is calculated by subtracting the signal of the control compound (POC=0) from the signal of the test compound and dividing the outcome by the signal of DMSO (POC=100) minus the signal of the control compound. For the compounds disclosed herein, S10 scores were obtained by testing the compounds at 10 μM concentration in a kinase panel containing either 386 or 392 distinct kinases.

This is an account of results in US9938261B2, “Heterocyclic compounds and methods of use thereof” (AMBIT BIOSCIENCES CORPORATION, priority 2011, dated 2018).

T2 sequence (P10721 26-976): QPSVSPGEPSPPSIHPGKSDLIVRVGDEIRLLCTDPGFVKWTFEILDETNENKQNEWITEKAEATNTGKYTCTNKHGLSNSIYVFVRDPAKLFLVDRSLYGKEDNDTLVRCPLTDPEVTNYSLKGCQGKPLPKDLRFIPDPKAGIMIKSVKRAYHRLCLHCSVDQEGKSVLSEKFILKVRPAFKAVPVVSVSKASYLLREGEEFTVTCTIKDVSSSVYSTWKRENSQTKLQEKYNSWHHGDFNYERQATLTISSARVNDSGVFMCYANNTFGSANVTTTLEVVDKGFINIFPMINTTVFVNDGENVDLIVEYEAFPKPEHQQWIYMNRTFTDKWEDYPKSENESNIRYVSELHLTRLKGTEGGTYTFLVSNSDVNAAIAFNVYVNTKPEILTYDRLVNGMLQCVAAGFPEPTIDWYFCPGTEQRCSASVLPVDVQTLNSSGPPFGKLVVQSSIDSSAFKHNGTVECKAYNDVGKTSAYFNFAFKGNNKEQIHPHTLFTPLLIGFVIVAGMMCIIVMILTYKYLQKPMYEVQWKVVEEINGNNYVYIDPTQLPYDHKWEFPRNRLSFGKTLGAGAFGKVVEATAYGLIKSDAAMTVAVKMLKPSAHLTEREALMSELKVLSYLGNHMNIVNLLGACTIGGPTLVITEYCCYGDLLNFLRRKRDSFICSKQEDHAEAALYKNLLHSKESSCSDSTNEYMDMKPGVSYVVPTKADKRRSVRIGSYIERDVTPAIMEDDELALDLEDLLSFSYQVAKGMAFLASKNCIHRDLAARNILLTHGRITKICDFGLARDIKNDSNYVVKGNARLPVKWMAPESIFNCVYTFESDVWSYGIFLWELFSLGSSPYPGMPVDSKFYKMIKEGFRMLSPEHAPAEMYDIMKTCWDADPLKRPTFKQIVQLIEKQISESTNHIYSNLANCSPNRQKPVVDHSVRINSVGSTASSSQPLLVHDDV
T1 sequence (P09619 33-1106): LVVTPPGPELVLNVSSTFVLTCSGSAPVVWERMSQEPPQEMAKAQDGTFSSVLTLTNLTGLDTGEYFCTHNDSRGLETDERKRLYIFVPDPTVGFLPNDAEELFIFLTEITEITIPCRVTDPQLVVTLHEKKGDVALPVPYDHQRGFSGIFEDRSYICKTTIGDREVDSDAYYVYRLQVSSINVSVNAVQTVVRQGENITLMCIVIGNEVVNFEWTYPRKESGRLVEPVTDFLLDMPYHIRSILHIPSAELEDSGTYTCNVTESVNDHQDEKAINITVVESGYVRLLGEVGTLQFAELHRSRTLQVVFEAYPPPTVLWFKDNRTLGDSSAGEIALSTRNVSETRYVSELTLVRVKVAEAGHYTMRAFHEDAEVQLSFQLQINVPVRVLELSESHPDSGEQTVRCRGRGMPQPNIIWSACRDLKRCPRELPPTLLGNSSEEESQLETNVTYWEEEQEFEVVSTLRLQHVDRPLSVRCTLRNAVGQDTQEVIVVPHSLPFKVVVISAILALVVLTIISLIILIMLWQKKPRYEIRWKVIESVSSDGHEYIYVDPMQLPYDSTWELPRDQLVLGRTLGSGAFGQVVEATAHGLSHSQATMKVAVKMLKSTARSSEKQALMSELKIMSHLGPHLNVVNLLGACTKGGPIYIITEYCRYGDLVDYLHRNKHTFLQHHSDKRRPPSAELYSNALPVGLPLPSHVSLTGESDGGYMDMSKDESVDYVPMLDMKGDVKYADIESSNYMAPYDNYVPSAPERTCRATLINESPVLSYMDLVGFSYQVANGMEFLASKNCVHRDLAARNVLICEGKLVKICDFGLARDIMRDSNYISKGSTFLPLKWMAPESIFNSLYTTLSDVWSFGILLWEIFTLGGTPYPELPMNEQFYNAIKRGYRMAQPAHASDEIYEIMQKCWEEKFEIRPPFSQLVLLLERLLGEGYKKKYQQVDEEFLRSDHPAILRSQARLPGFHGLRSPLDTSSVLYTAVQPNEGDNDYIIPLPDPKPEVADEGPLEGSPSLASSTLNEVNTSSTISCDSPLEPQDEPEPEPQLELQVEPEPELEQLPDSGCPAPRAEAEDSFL
CSF1R, sequence (P07333 20-972): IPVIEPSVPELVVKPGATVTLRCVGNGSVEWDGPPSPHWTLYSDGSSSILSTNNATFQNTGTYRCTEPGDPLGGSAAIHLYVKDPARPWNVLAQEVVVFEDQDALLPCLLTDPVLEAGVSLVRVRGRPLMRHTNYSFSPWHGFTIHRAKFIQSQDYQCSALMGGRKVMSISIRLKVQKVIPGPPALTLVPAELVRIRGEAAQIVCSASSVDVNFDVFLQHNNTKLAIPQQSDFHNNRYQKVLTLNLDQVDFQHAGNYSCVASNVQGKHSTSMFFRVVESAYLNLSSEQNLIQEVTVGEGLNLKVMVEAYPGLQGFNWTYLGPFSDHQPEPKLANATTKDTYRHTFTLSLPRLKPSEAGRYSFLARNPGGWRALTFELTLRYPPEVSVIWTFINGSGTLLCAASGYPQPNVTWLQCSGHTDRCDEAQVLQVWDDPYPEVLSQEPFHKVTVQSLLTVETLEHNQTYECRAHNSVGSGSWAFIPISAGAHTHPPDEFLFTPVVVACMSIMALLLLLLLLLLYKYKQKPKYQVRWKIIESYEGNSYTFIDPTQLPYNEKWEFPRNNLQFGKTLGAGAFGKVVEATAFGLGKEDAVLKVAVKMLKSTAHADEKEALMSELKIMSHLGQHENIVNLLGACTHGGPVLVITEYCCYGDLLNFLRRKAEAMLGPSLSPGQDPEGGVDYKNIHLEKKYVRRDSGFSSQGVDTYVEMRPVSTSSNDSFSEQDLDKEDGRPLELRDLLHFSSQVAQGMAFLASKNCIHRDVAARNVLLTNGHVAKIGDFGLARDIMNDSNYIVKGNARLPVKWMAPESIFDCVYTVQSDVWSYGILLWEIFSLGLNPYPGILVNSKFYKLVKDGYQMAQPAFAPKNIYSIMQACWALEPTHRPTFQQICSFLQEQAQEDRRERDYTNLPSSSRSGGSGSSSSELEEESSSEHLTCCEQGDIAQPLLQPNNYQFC

As to `O[C@@H]1Cc2ccccc2[C@H]1Nc1nc2ccc(Cn3cnc4cccnc43)cc2s1` [Example 46, (1R,2R)-1-((6-((3H-imidazo[4,5-b]pyridin-3-yl)methyl)benzo[d]thiazol-2-yl)amino)-2,3-dihydro-1H-inden-2-ol], in the experiment with M-NFS-60 cells, the concentration for half-maximal inhibition (IC50) lay in the range of 50 to 400 nM. Besides, the Kd was at most 5 nM on CSF1R, at most 50 nM on PDGFRβ and 100 to 500 nM at KIT. Further, the “Kinase specificity S(10)” value in experiment [1] was “B (0.01<B≤0.02)”.

In the case of `COc1cc2ncn(Cc3ccc4nc(N[C@@H]5CCCC[C@H]5O)sc4c3)c2cc1Br` [Example 47, (1R,2R)-2-((6-((6-bromo-5-methoxy-1H-benzo[d]imidazol-1-yl)methyl)benzo[d]thiazol-2-yl)amino)cyclohexanol], the IC50 in the experiment with M-NFS-60 cells was at most 50 nM. In addition, the Kd on CSF1R is 5 to 20 nM; at PDGFRβ, 50 to 500 nM; at KIT it was at most 100 nM. Besides, the “Kinase specificity S(10)” value in experiment [1] is “B (0.01<B≤0.02)”.

In the case of `O[C@@H]1CCCC[C@H]1Nc1nc2ccc(Cn3cnc4cncnc43)cc2s1` [Example 48, (1R,2R)-2-((6-((9H-purin-9-yl)methyl)benzo[d]thiazol-2-yl)amino)cyclohexanol], in the experiment on M-NFS-60 cells, the IC50 lay within 50 to 400 nM. Moreover, the Kd at CSF1R lay in the range of 5 to 20 nM; at PDGFRβ, 50 to 500 nM; at KIT it was 500 to 2000 nM. The “Kinase specificity S(10)” value in experiment [1] is reported as “A (A≤0.01)”.

Regarding `COc1cc2c(cc1Br)ncn2Cc1ccc2nc(N[C@@H]3c4ccccc4C[C@H]3O)sc2c1` [Example 49, (1R,2R)-1-((6-((5-bromo-6-methoxy-1H-benzo[d]imidazol-1-yl)methyl)benzo[d]thiazol-2-yl)amino)-2,3-dihydro-1H-inden-2-ol], the IC50 in the experiment on M-NFS-60 cells lay within 50 to 400 nM. Further, the values for the equilibrium dissociation constant (Kd) on CSF1R, on PDGFRβ and on KIT were 5 to 20 nM, 500 to 2000 nM and 500 to 2000 nM, respectively. In experiment [1], the “Kinase specificity S(10)” value is on record as “A (A≤0.01)”.

With `COc1cc2c(cc1-c1cnn(C)c1)ncn2Cc1ccc2nc(N[C@@H]3CCCC[C@H]3O)sc2c1` [Example 51, (1R,2R)-2-((6-((6-methoxy-5-(1-methyl-1H-pyrazol-4-yl)-1H-benzo[d]imidazol-1-yl)methyl)benzo[d]thiazol-2-yl)amino)cyclohexanol], in the experiment on M-NFS-60 cells, the IC50 is at most 50 nM. The Kd was at most 5 nM at CSF1R, at most 50 nM at PDGFRβ and at most 100 nM on KIT. Besides, in experiment [1], the “Kinase specificity S(10)” value is reported as “C (C>0.02)”.

Consider `COc1cc2ncn(Cc3ccc4nc(N[C@@H]5CCCC[C@H]5O)sc4c3)c2cc1-c1cnn(C)c1` [Example 52, (1R,2R)-2-((6-((5-methoxy-6-(1-methyl-1H-pyrazol-4-yl)-1H-benzo[d]imidazol-1-yl)methyl)benzo[d]thiazol-2-yl)amino)cyclohexanol], for which, in the experiment on M-NFS-60 cells, the IC50 is 50 to 400 nM. In addition, the equilibrium dissociation constant (Kd) was at most 5 nM at CSF1R, 50 to 500 nM on PDGFRβ and at most 100 nM at KIT. In addition, the “Kinase specificity S(10)” value in experiment [1] was “C (C>0.02)”.

For the compound `COc1cc2ncn(Cc3ccc4nc(N[C@@H]5CCCC[C@H]5O)sc4c3)c2cc1C#N` [Example 53, 1-((2-(((1R,2R)-2-hydroxycyclohexyl)amino)benzo[d]thiazol-6-yl)methyl)-5-methoxy-1H-benzo[d]imidazole-6-carbonitrile], the IC50 in the experiment on M-NFS-60 cells was at most 50 nM. For the same compound, the Kd at CSF1R fell in the range of 5 to 20 nM; at PDGFRβ, 50 to 500 nM; at KIT, 100 to 500 nM. Further, in experiment [1], the “Kinase specificity S(10)” value was “B (0.01<B≤0.02)”.

`O=C1CCCC[C@H]1Nc1nc2ccc(Cn3cnc4cccnc43)cc2s1` [Example 54, (R)-2-((6-((3H-imidazo[4,5-b]pyridin-3-yl)methyl)benzo[d]thiazol-2-yl)amino)cyclohexanone]: in the experiment with M-NFS-60 cells, the IC50 lay within 50 to 400 nM. Also, the Kd at CSF1R lay within 20 to 50 nM; at PDGFRβ, 50 to 500 nM; at KIT, 100 to 500 nM. Also, the “Kinase specificity S(10)” value in experiment [1] was “A (A≤0.01)”.

`O[C@@H]1CCCC[C@H]1Nc1nc2ccc(Cn3cnc4cc(Cl)cnc43)cc2s1` [Example 55, (1R,2R)-2-((6-((6-chloro-3H-imidazo[4,5-b]pyridin-3-yl)methyl)benzo[d]thiazol-2-yl)amino)cyclohexanol]: the IC50 in the experiment with M-NFS-60 cells is at most 50 nM. The Kd on CSF1R is 5 to 20 nM; on PDGFRβ it was at most 50 nM; at KIT, at most 100 nM. The “Kinase specificity S(10)” value in experiment [1] is “B (0.01<B≤0.02)”.

Turning to `O[C@@H]1CCCC[C@H]1Nc1nc2ccc(Cn3cnc4cccnc43)cc2o1` [Example 56, (1R,2R)-2-((6-((3H-imidazo[4,5-b]pyridin-3-yl)methyl)benzo[d]oxazol-2-yl)amino)cyclohexanol], in the experiment with M-NFS-60 cells, the IC50 is 50 to 400 nM. For the same compound, the Kd at CSF1R is 5 to 20 nM; at PDGFRβ, at most 50 nM; at KIT, at most 100 nM. For the same compound, the “Kinase specificity S(10)” value in experiment [1] is “C (C>0.02)”.

As for `O[C@@H]1Cc2ccccc2[C@H]1Nc1nc2ccc(Cn3cnc4cccnc43)cc2o1` [Example 57, (1R,2R)-1-((6-((3H-imidazo[4,5-b]pyridin-3-yl)methyl)benzo[d]oxazol-2-yl)amino)-2,3-dihydro-1H-inden-2-ol], in the experiment on M-NFS-60 cells, the IC50 fell in the range of 50 to 400 nM. Moreover, the values for the Kd at CSF1R, on PDGFRβ and on KIT were at most 5 nM, at most 50 nM and at most 100 nM, respectively. Besides, the “Kinase specificity S(10)” value in experiment [1] is reported as “C (C>0.02)”.

With `ON=C1CCCC[C@H]1Nc1nc2ccc(Cn3cnc4cccnc43)cc2s1` [Example 58, (R)-2-((6-((3H-imidazo[4,5-b]pyridin-3-yl)methyl)benzo[d]thiazol-2-yl)amino)cyclohexanone oxime], the IC50 in the experiment on M-NFS-60 cells lay in the range of 50 to 400 nM. Moreover, the Kd at CSF1R is at most 5 nM; on PDGFRβ, at most 50 nM; at KIT it was at most 100 nM. Also, the “Kinase specificity S(10)” value in experiment [1] was “B (0.01<B≤0.02)”.

Turning to `O[C@@H]1CCCC[C@H]1Nc1nc2ccc(Cn3cnc4cc(Br)cnc43)cc2o1` [Example 61, (1R,2R)-2-((6-((6-bromo-3H-imidazo[4,5-b]pyridin-3-yl)methyl)benzo[d]oxazol-2-yl)amino)cyclohexanol], in the experiment with M-NFS-60 cells, the IC50 is at most 50 nM. Further, the dissociation constant Kd on CSF1R is 5 to 20 nM; at PDGFRβ, at most 50 nM; at KIT it was at most 100 nM. Further, in experiment [1], the “Kinase specificity S(10)” value is reported as “C (C>0.02)”.

`O[C@@H]1Cc2ccccc2[C@H]1Nc1nc2ccc(Cn3cnc4cc(Br)cnc43)cc2o1` [Example 62, (1R,2R)-1-((6-((6-bromo-3H-imidazo[4,5-b]pyridin-3-yl)methyl)benzo[d]oxazol-2-yl)amino)-2,3-dihydro-1H-inden-2-ol]: the IC50 in the experiment on M-NFS-60 cells was at most 50 nM. Besides, the values for the Kd at CSF1R, on PDGFRβ and on KIT were at most 5 nM, at most 50 nM and at most 100 nM, respectively. Further, the “Kinase specificity S(10)” value in experiment [1] is on record as “C (C>0.02)”.

For the compound `OC[C@@H](Nc1nc2ccc(Cn3cnc4cccnc43)cc2s1)C1CCCCC1` [Example 63, (S)-2-((6-((3H-imidazo[4,5-b]pyridin-3-yl)methyl)benzo[d]thiazol-2-yl)amino)-2-cyclohexylethanol], the IC50 in the experiment on M-NFS-60 cells lay in the range of 50 to 400 nM. The Kd is 5 to 20 nM on CSF1R, at most 50 nM on PDGFRβ and at most 100 nM on KIT. Moreover, in experiment [1], the “Kinase specificity S(10)” value was “C (C>0.02)”.

Regarding `OC[C@H](Nc1nc2ccc(Cn3cnc4cccnc43)cc2s1)C1CCCCC1` [Example 64, (R)-2-((6-((3H-imidazo[4,5-b]pyridin-3-yl)methyl)benzo[d]thiazol-2-yl)amino)-2-cyclohexylethanol], the concentration for half-maximal inhibition (IC50) in the experiment on M-NFS-60 cells was 50 to 400 nM. For the same compound, the Kd at CSF1R is 5 to 20 nM; at PDGFRβ, at most 50 nM; on KIT, at most 100 nM. In addition, the “Kinase specificity S(10)” value in experiment [1] was “C (C>0.02)”.

The term IC50 denotes the concentration at which inhibition is half-maximal. Usually Kd stands for the equilibrium constant for the complex coming apart. A low value points to tighter binding.
